Reference: PubChem BioAssay (NCI)
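These data come from cells grown in 96-well plates and exposed to compound for 48 hours at five concentrations. GI50 marks 50% less growth. Definition used: TGI = concentration required for complete inhibition of growth.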

Assays:
Assay in all cases: NCI tumour cell line growth inhibition, 48 h
[1] = tested on: OVCAR-4 ovarian
[2] = tested on: HOP-92 NSCLC
[3] = tested on: RPMI-8226 leukemia
[4] = tested on: SW-620 colon
[5] = tested on: U251 CNS
[6] = tested on: TK-10 renal
[7] = tested on: SR leukemia
[8] = tested on: SF-268 CNS
[9] = tested on: SK-MEL-5 melanoma
[10] = tested on: UACC-62 melanoma
[11] = tested on: OVCAR-5 ovarian
[12] = tested on: T-47D breast
[13] = tested on: CAKI-1 renal
[14] = tested on: SF-539 CNS
[15] = tested on: PC-3 prostate
[16] = tested on: K-562 leukemia
[17] = tested on: MDA-MB-231 breast
[18] = tested on: SK-MEL-28 melanoma
[19] = tested on: SN12C renal
[20] = tested on: ACHN renal
[21] = tested on: LOX IMVI melanoma
[22] = tested on: HS 578T breast
[23] = tested on: SK-MEL-2 melanoma
[24] = tested on: 786-0 renal
[25] = tested on: NCI-H23 lung
[26] = tested on: OVCAR-8 ovarian
[27] = tested on: SK-OV-3 ovarian
[28] = tested on: HCT-15 colon
[29] = tested on: A549 NSCLC
[30] = tested on: KM12 colon
[31] = tested on: MCF7 breast
[32] = tested on: NCI-H460 lung
[33] = tested on: NCI-H522 lung
[34] = tested on: HCT-116 colon
[35] = tested on: EKVX NSCLC
[36] = tested on: M14 melanoma
[37] = tested on: OVCAR-3 ovarian
[38] = tested on: DU-145 prostate
[39] = tested on: UO-31 renal
[40] = tested on: IGROV1 ovarian
[41] = tested on: SNB-19 CNS
[42] = tested on: COLO 205 colon
[43] = tested on: MDA-MB-435
[44] = tested on: BT-549 breast
[45] = tested on: HOP-62 NSCLC
[46] = tested on: HCC-2998 colon
[47] = tested on: SF-295 CNS
[48] = tested on: UACC-257 melanoma
[49] = tested on: HT29 colon
[50] = tested on: NCI/ADR-RES ovarian
[51] = tested on: RXF 393 renal
[52] = tested on: MALME-3M melanoma
[53] = tested on: CCRF-CEM leukemia
[54] = tested on: A498 renal
[55] = tested on: HL-60(TB) leukemia
[56] = tested on: MOLT-4 leukemia
[57] = tested on: SNB-75 CNS

Work on `Oc1ccccc1Nc1nc2ccccc2c2occc12` yielded a GI50 [1] of 10.8 µM, a TGI [1] of 31.4 µM and a GI50 [2] of 5.73 µM. The TGI [2] was 19.5 µM, the GI50 [3] was 9.11 µM and the TGI [3] was 57.8 µM. It also gave a GI50 [4] of 13.2 µM, a TGI [4] of 26 µM and a GI50 [5] of 12.3 µM. It also gave a TGI [5] of 24.7 µM, a GI50 [6] of 1.9 µM and a TGI [6] of 6.65 µM. The GI50 [7] was 14.8 µM, the TGI [7] was over 100 µM and the GI50 [8] was 8.74 µM. For the same compound, the TGI [8] was 28.6 µM, the GI50 [9] was 6.1 µM and the TGI [9] was 19.4 µM. The GI50 [10] was 10.3 µM, the TGI [10] was 21.9 µM and the GI50 [11] was 12.6 µM. It also gave a TGI [11] of 25.1 µM, a GI50 [12] of 10.1 µM and a TGI [12] of 24.1 µM. The GI50 [13] was 1.78 µM, the TGI [13] was 12.8 µM and the GI50 [14] was 10.4 µM. It also gave a TGI [14] of 22.1 µM, a GI50 [15] of 10.9 µM and a TGI [15] of 22.8 µM. For the same compound, the GI50 [16] was over 100 µM, the TGI [16] was over 100 µM and the GI50 [17] was 10.1 µM. It also gave a TGI [17] of 22.3 µM, a GI50 [18] of 15.1 µM and a TGI [18] of 31.8 µM. It also gave a GI50 [19] of 11.1 µM, a TGI [19] of 23.1 µM and a GI50 [20] of 3.9 µM. For the same compound, the TGI [20] was 17 µM, the GI50 [21] was 2.43 µM and the TGI [21] was 9.39 µM. It also gave a GI50 [22] of 3.9 µM, a TGI [22] of 20.8 µM and a GI50 [23] of 14.1 µM. The TGI [23] was 31 µM, the GI50 [24] was 0.399 µM and the TGI [24] was 19.2 µM. For the same compound, the GI50 [25] was 4.48 µM, the TGI [25] was 17.5 µM and the GI50 [26] was 15.4 µM. The TGI [26] was 35.8 µM, the GI50 [27] was 11.1 µM and the TGI [27] was 25.2 µM. For the same compound, the GI50 [28] was 12.8 µM, the TGI [28] was 31.7 µM and the GI50 [29] was 14.5 µM. The TGI [29] was 27.5 µM, the GI50 [30] was 12.5 µM and the TGI [30] was 50.7 µM. It also gave a GI50 [31] of 25.2 µM, a TGI [31] of 51.8 µM and a GI50 [32] of 14.1 µM. The TGI [32] was 27.6 µM, the GI50 [33] was 8.36 µM and the TGI [33] was 24.2 µM. The GI50 [34] was 14.3 µM, the TGI [34] was 27.4 µM and the GI50 [35] was 11.3 µM. It also gave a TGI [35] of 26.2 µM, a GI50 [36] of 11.6 µM and a TGI [36] of 23.8 µM. For the same compound, the GI50 [37] was 2.48 µM, the TGI [37] was 16.3 µM and the GI50 [38] was 9.66 µM. For the same compound, the TGI [38] was 21.4 µM, the GI50 [39] was 5.91 µM and the TGI [39] was 19.6 µM. The GI50 [40] was 0.0614 µM, the TGI [40] was 15.8 µM and the GI50 [41] was 7.22 µM. It also gave a TGI [41] of 20.3 µM, a GI50 [42] of 13.3 µM and a TGI [42] of 26 µM. The GI50 [43] was 9.25 µM, the TGI [43] was 21.2 µM and the GI50 [44] was 7.59 µM. The TGI [44] was 20.7 µM, the GI50 [45] was 7.69 µM and the TGI [45] was 21.7 µM. For the same compound, the GI50 [46] was 3.11 µM, the TGI [46] was 10.3 µM and the GI50 [47] was 3.71 µM. It also gave a TGI [47] of 16.1 µM, a GI50 [48] of 16.1 µM and a TGI [48] of 29.6 µM.

For `c1ccc2c(-c3nc4ccccc4[nH]3)cccc2c1`, the GI50 [1] was 10.9 µM, the TGI [1] was over 100 µM and the GI50 [2] was 4.27 µM. It also gave a TGI [2] of 38.2 µM, a GI50 [49] of 2.68 µM and a TGI [49] of 11.8 µM. The GI50 [3] was 3.19 µM, the TGI [3] was 34.5 µM and the GI50 [50] was 1.8 µM. The TGI [50] was over 100 µM, the GI50 [4] was 1.91 µM and the TGI [4] was 53.8 µM. For the same compound, the GI50 [5] was 3.72 µM, the TGI [5] was 26.3 µM and the GI50 [51] was 2.58 µM. It also gave a TGI [51] of 12 µM, a GI50 [6] of 8.15 µM and a TGI [6] of 55.7 µM. It also gave a GI50 [7] of 1.42 µM, a TGI [7] of 21.4 µM and a GI50 [8] of 5.62 µM. The TGI [8] was over 100 µM, the GI50 [9] was 4.28 µM and the TGI [9] was 72.4 µM. It also gave a GI50 [10] of 1.99 µM, a TGI [10] of 27.3 µM and a GI50 [11] of 8.35 µM. For the same compound, the TGI [11] was over 100 µM, the GI50 [52] was 3.81 µM and the TGI [52] was 34.9 µM. The GI50 [12] was 6.06 µM, the TGI [12] was over 100 µM and the GI50 [13] was 3.18 µM. For the same compound, the TGI [13] was over 100 µM, the GI50 [14] was 3.77 µM and the TGI [14] was 23.7 µM. The GI50 [15] was 3.88 µM, the TGI [15] was over 100 µM and the GI50 [16] was 0.541 µM. For the same compound, the TGI [16] was 18 µM, the GI50 [53] was 2.54 µM and the TGI [53] was 7.81 µM. It also gave a GI50 [17] of 9.65 µM, a TGI [17] of over 100 µM and a GI50 [18] of 4.64 µM. The TGI [18] was over 100 µM, the GI50 [54] was 1.11 µM and the TGI [54] was 6.52 µM. For the same compound, the GI50 [19] was 5.03 µM, the TGI [19] was over 100 µM and the GI50 [20] was 7.97 µM. For the same compound, the TGI [20] was over 100 µM, the GI50 [21] was 7.11 µM and the TGI [21] was over 100 µM. The GI50 [22] was 2.49 µM, the TGI [22] was 17.2 µM and the GI50 [23] was 2.15 µM. It also gave a TGI [23] of 8.68 µM, a GI50 [24] of 5.5 µM and a TGI [24] of over 100 µM. The GI50 [25] was 4.2 µM, the TGI [25] was over 100 µM and the GI50 [55] was 2.78 µM. It also gave a TGI [55] of 14.8 µM, a GI50 [26] of 4.09 µM and a TGI [26] of 33.3 µM. The GI50 [27] was 4.04 µM, the TGI [27] was 27.3 µM and the GI50 [28] was 1.82 µM. For the same compound, the TGI [28] was over 100 µM, the GI50 [29] was 4.36 µM and the TGI [29] was over 100 µM. For the same compound, the GI50 [56] was 2.9 µM, the TGI [56] was 83.8 µM and the GI50 [30] was 2.26 µM. For the same compound, the TGI [30] was over 100 µM, the GI50 [31] was 2.94 µM and the TGI [31] was 37.9 µM. It also gave a GI50 [32] of 3.17 µM, a TGI [32] of 15.8 µM and a GI50 [33] of 2.19 µM. For the same compound, the TGI [33] was 5.54 µM, the GI50 [34] was 3.47 µM and the TGI [34] was 96.8 µM. The GI50 [36] was 1.99 µM, the TGI [36] was 12 µM and the GI50 [37] was 2.17 µM. It also gave a TGI [37] of 6.89 µM, a GI50 [38] of 3.04 µM and a TGI [38] of 9.29 µM. For the same compound, the GI50 [39] was 4.72 µM, the TGI [39] was 33.3 µM and the GI50 [57] was 2.35 µM. For the same compound, the TGI [57] was 13.5 µM, the GI50 [40] was 5.01 µM and the TGI [40] was 40.3 µM. For the same compound, the GI50 [41] was 4.26 µM, the TGI [41] was 40.4 µM and the GI50 [42] was 3.48 µM. It also gave a TGI [42] of 11.8 µM, a GI50 [43] of 0.309 µM and a TGI [43] of 1.44 µM. The GI50 [44] was 3.3 µM, the TGI [44] was 80 µM and the GI50 [45] was 5.35 µM. For the same compound, the TGI [45] was 30.3 µM, the GI50 [46] was 6.96 µM and the TGI [46] was over 100 µM. The GI50 [47] was 2.98 µM, the TGI [47] was 29.1 µM and the GI50 [48] was 3.87 µM. The TGI [48] was 84.4 µM.
